# In patent publication US5135928A, “Triazolo derivatives and process for their preparation” (Egis Gyogyszergyar, priority 1989, dated 1992):
# Experiments:
# [1] = system: mice; experiment: Hexobarbital narcosis on mice; type: in vivo; conditions: oral; for ED50: Mus musculus, 1 hour before Hexobarbital 40 mg/kg i.v., positive = sleeping time more than 2.5 times longer than control; for Therapeutical index: Hexobarbital narcosis
# Description: 1. Hexobarbital narcosis on mice
# Method: Kaergaard, Arch. Int. Pharmacodyn. 2, 170, (1967)
# Groups consisting of 6 mice are used for each dose. The animals are treated orally with the test compound (the control group receives a vehicle), whereby sleeping is induced 1 hour later by administering a 40 mg/kg i.v. dose of Hexobarbital both to the test and control groups.
# Animals which have a sleeping time more than 2.5 times longer than that of the control group are considered to show a positive reaction. ED50 values are calculated from the thus-transformed data.
# [2] = system: rats; experiment: Antianginal effect (vasopressin-induced experimental coronaria insufficiency, height of wave T in ECG); type: in vivo; conditions: Rattus norvegicus, iv, 2 minutes prior to vasopressin i.v.; narcotised male rats 180-220 g
# Description: Male rats of 180-220 g body weight were narcotised with chloralese-urethane(70/700 mg/kg ip.). The ECG was registered with needle electrodes in standard II leading. The experimental coronaria insufficiency was induced with vasopressin (4 NE/kg i.v.). The height of wave T in ECG was measured before and after the administration of vasopressin in both the control and treated groups. Test compounds were administered intravenously 2 minutes prior to the treatment with vasopressin.
structure (smiles),measurement,setting,value
"CN(N=Cc1c(Cl)cccc1Cl)C(=S)n1nc(N2CCOCC2)nc1N [Example 5, 1-(5-Amino-3-morpholino-1H-1,2,4-triazol-1-yl)-N-methyl-N'-(2,6-dichlorobenzylidene)carbothiohydrazide]",ED50,[1],36 mg/kg
same,Therapeutical index,[1],27.8
"CN(N=Cc1ccc(OCC(N)=O)cc1)C(=S)n1nc(N2CCOCC2)nc1N [Example 7, 1-(5-Amino-3-morpholino-1H-1,2,4-triazol-1-yl)-N-methyl-N'-(4-carbamoylmethoxybenzylidene)carbothiohydrazide]",ED50,[1],110 mg/kg
same,Therapeutical index,[1],9.1
"COc1cc(C=NN(C)C(=S)n2nc(SC)nc2N)ccc1O [Example 22, 1-(5-Amino-3-methylthio-1H-1,2,4-triazol-1-yl)-N-methyl-N'-(4-hydroxy-3-methoxybenzylidene)carbothiohydrazide]",ED50,[1],110 mg/kg
same,Therapeutical index,[1],5.1
"CC1Nc2nc(N3CCOCC3)nn2C(=S)N(C)N1 (centres unmarked) [Example 41, 6,8-Dimethyl-2-morpholino-5,6,8,9-tetrahydro[1,2,4]-triazolo-[1,5-d][1,2,4,6]tetrazepine-5(7H)-thione]",ED50,[1],200 mg/kg
same,Therapeutical index,[1],10.0
"CSc1nc2n(n1)C(=S)N(C)NC1(CCCCC1)N2 [Example 47, 6-Methyl-2-methylthio-5,6,8,9-tetrahydro[1,2,4]-triazolo[1,5-d][1,2,4,6]tetrazepine-5(7H)-thione-8-spiro-1'-cyclohexane]",ED50,[1],200 mg/kg
same,Therapeutical index,[1],10.0
"CN1NC2(CCCC2)Nc2nc(N3CCOCC3)nn2C1=S [Example 48, 6-Methyl-2-morpholino-5,6,8,9-tetrahydro[1,2,4]-triazolo[1,5-d][1,2,4,6]tetrazepine-5(7H)-thione-8-spiro-1'-cyclopentane]",ED50,[2],1.35 mg/kg
"CN1NC2(CCCCCCCCCCC2)Nc2nc(N3CCOCC3)nn2C1=S [Example 53, 6-Methyl-2-morpholino-5,6,8,9-tetrahydro-1,2,4-triazolo[1,5-d][1,2,4,6]tetrazepine-5(7H)-thione-8-spiro-1'-cyclododecane]",ED50,[2],1 mg/kg
same,ED50,[1],41 mg/kg
same,Therapeutical index,[1],48.8
"COC(=O)CC1(C)Nc2nc(SC)nn2C(=S)N(C)N1 (centres unmarked) [Example 57, 6,8-Dimethyl-8-methoxycarbonyl-methyl-2-methylthio-5,6,8,9tetrahydro[1,2,4]triazolo[1,5-d][1,2,4,6]-tetrazepine-5(7H)-thione]",ED50,[2],1.65 mg/kg
"CCOC(=O)CCC1(C)Nc2nc(N3CCOCC3)nn2C(=S)N(C)N1 (centres unmarked) [Example 58, 6,8-Dimethyl-8-(ethoxycarbonyl-ethyl)-2-morpholino-5,6,8,9-tetrahydro[1,2,4]triazolo[1,5-d][1,2,4,6]-tetrazepine-5(7H)-thione]",ED50,[1],160 mg/kg
same,Therapeutical index,[1],12.5
"CCCC(C)(COC(N)=O)COC(N)=O [Meprobamate, reference compound]",ED50,[1],270 mg/kg
same,Therapeutical index,[1],4.1
"CC(Cc1ccccc1)NCCC(c1ccccc1)c1ccccc1 (centres unmarked) [Prenylamine, reference compound]",ED50,[2],6.5 mg/kg
